Experimental data reported in US8466131B2, “Ligands specific for cannabinoid receptor subtype 2” (University of Pittsburgh—of the Commonwealth System of …, priority 2007, dated 2013).
pKi: −log10 of the molar value. “Also recorded” adds a separate entry of the source.

What was measured:
[1] = biological target: T1, CB2 receptor (Homo sapiens, UniProt P34972); assay: forskolin-stimulated cAMP assay in CB2 receptor transfected CHO-K1 cells; assay type: cell-based; conditions: for effect on CB2 agonist WIN55,212-2 response (cAMP): 1 μM antagonist, with increasing WIN55,212-2, 30 min prior to forskolin (20 μM), FIG. 2; for functional mode of ligand alone (cAMP): ligand alone at increasing concentrations 30 min prior to forskolin (20 μM), FIG. 3
T1 construct: expressed in transfected cells; host or cells: CHO-K1
Description: FIG. 2. Confluentially growing CB2 receptor transfected […] CHO-K1 cells were stimulated with forskolin (20 μM) and analyzed for cAMP expression after 30 min. The CB2 agonist WIN55, 212-2 was incubated at increasing concentrations 30 min prior to forskolin stimulation alone or in presence of 1 μM of the antagonists AM630 and the compound of Formula II.
FIG. 3. Confluentially growing CB2 receptor transfected […] CHO-K1 cells were stimulated with forskolin (20 μM) and analyzed for cAMP expression after 30 minutes. CB2 ligands were incubated at increasing concentrations 30 minutes prior to forskolin stimulation.
Cell-based Functional Bioassay Studies. […] Subsequently, further receptor biological studies were performed: i) to examine/assess the G-protein effects of the compound of Formula II upon CB2 receptor binding and ii) to test the compound of Formula II for anti-inflammatory effects.

[2] = biological target: T2, CB2 cannabinoid receptor (Mus musculus, UniProt P47936); assay: [3H]-CP-55,940 radiometric competition binding assay, CB2 (mouse spleen membrane); conditions: displacement of 3H-CP 55940, mouse spleen membrane; read-out: CB2 binding affinity (Ki)
T2 construct: from tissue; host or cells: frozen mouse spleen membranes
Description: (§1) In-vitro Bio-validation Experiment. To biologically validate the screened hit compounds above, in-vitro [^3H]-radioactive CB ligand binding assays were carried out to determine the CB receptor binding affinity (Ki) of the screened ligands by displacing [^3H]-CP-55,940. The compound of Formula II was obtained from National Cancer Institute (NCI). For each assay, a positive control with a known ligand (SR-141716A for CB1 and SR-144528 for CB2) was run to ensure the reliability of the assay.
For CB2 receptor binding studies, membranes were prepared from frozen mouse spleen. […]
(§2) The experiments were conducted based on reported procedures. […] 1999, 1(3):article 4; Abadji et al., J. Med. Chem. 1994, 37(120:1889-1893; and Abadji et al., J. Neurochem. 1999, 72(5):2032-38. Thus, the competition binding assay was performed using [3H]-CP-55,940 (1 nM) as a radioligand for the CB1 or CB2 cannabinoid receptor (rate brain or mouse spleen membranes), at 30° C. in 96-well microtiter plates, 50 μg of membrane each well re-suspended in 200 μl (final volume) binding buffer (50 mM Tris-HCl, 2.5 mM EGTA, 3 mM MgCl2, 0.1% bovine serum albumin, pH 7.4). The tested compounds were presented at varying concentrations, and the nonspecific binding was determined in the presence of 10 μM CP-55,940 or HU-210. […] The Ki values were calculated by using GraphPad Prism 5.0 (GraphPad Software, Inc.).

[3] = biological target: T3, CB1 cannabinoid receptor (Rattus norvegicus, UniProt P20272); assay: [3H]-CP-55,940 radiometric competition binding assay, CB1 (rat forebrain membrane); conditions: displacement of 3H-CP 55940, rat forebrain membrane; read-out: CB1 binding affinity (Ki)
T3 construct: from tissue; host or cells: rat forebrain membranes
Description: as §1
For CB1 receptor binding studies, rat forebrain membranes were prepared following the reported procedures. […]
as §2

T1 sequence (P34972 whole entry): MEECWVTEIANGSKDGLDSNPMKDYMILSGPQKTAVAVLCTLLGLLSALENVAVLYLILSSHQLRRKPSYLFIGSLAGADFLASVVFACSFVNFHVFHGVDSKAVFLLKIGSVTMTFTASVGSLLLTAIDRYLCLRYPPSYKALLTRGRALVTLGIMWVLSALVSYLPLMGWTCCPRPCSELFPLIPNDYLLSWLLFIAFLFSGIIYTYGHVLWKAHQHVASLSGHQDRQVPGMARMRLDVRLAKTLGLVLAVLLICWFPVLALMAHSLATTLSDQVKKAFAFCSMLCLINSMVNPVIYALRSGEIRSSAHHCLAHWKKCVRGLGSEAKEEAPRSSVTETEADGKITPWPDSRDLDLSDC
T2 sequence (P47936 whole entry): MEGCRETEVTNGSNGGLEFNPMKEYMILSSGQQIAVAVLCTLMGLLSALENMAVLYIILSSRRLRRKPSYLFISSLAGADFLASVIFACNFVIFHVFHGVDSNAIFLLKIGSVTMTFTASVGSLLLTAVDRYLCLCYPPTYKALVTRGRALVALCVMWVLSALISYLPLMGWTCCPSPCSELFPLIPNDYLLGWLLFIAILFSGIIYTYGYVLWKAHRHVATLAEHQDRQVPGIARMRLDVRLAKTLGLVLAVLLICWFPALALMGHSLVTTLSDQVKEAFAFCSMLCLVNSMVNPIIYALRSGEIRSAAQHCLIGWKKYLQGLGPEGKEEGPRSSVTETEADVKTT
T3 sequence (P20272 whole entry): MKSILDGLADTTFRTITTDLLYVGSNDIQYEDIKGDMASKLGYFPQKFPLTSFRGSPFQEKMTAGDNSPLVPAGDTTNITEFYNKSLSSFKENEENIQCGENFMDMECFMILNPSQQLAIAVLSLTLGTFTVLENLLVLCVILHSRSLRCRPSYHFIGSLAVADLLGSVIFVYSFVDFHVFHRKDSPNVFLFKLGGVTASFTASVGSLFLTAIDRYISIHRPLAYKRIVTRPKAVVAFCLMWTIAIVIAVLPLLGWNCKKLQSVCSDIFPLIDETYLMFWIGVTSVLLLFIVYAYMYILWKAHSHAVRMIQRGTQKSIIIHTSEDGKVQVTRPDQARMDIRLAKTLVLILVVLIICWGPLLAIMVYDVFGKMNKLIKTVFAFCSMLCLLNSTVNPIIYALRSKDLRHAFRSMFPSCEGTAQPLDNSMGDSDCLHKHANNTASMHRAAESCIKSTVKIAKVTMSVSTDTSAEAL

Compound | effect on CB2 agonist WIN55,212-2 response (cAMP) [1] | functional mode of ligand alone (cAMP) [1] | pKi [2] | effect on Go signaling [1] | concentration at which compound becomes an agonist (cAMP) ([1]; FIG. 3, running text) [µM] | concentration at which compound is a weak agonist (cAMP) ([1]; FIG. 3 legend) [mM] | impact on Gi-proteins ([1]; at concentrations up to low μM) | pKi [3]
COc1ccc(C(=O)c2c(C)n(CCN3CCOCC3)c3cc(I)ccc23)cc1 [AM630, reference compound] | inhibits the effect of WIN55,212-2 | inverse agonist | – | – | – | – | – | –
N/C(=N\Cc1ccccc1)C(/N=N/c1ccccc1)C(=O)NCc1ccccc1 (centres unmarked) [Formula II] | inhibits the effect of WIN55,212-2; also recorded: antagonist like the known CB2 antagonist AM630 (but weaker) | weak agonist at high concentration; also recorded: not an inverse agonist | 7.50 | does not affect Go signaling | ~10 | > 7 | does not have an impact on Gi-proteins | 5.38
SR144528 [reference compound] | – | inverse agonist | – | – | – | – | – | –
